Assay results taken from ChEMBL document CHEMBL1126403, “Azaheteroaromatic ethers as carbonyl bioisosteres. Synthesis and evaluation of a novel class of 5-HT3 receptor antagonists” (Bioorg Med Chem Lett, 1992).

Legend:
[1] = biological target: T1, Serotonin 3 (5-HT3) receptor (Rattus norvegicus, UniProt P35563+Q9JJ16); test: Binding affinity was evaluated in vitro by displacement of [3H]zacopride radioligand from 5-hydroxytryptamine 3 receptor; assay type: protein-complex assay
T1 sequence (P35563 whole entry): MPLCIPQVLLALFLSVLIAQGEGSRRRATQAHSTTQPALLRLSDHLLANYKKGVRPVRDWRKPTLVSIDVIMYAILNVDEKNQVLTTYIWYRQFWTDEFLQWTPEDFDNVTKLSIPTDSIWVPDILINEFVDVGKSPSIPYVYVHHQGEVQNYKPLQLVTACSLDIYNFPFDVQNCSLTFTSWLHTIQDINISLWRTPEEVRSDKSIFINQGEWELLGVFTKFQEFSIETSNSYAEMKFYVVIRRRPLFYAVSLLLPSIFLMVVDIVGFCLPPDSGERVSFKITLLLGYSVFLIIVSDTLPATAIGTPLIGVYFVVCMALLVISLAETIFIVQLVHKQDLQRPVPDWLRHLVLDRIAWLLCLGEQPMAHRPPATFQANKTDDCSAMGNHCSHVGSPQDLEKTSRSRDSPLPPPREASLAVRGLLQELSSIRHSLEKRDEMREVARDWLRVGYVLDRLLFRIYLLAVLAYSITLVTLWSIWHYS
T1 sequence (Q9JJ16 whole entry): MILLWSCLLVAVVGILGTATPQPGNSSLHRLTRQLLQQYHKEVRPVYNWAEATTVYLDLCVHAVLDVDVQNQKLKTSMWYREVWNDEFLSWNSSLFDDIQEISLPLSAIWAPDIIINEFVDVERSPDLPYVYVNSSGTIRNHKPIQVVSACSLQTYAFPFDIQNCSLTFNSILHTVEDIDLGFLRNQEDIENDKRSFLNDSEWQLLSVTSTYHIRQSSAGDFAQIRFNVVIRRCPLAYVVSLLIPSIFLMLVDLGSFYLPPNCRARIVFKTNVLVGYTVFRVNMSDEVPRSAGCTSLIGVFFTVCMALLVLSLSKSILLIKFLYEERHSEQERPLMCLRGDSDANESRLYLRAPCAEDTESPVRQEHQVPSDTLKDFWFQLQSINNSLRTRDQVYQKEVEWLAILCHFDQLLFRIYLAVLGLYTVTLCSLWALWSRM

[2] = system: Rattus norvegicus; test: Compound was evaluated in vivo for its potency to antagonise serotonin 5-HT-inducedbradycardia in the anesthetized rat; assay type: functional

Structure (SMILES): CN1[C@@H]2CC[C@H]1C[C@@H](OC(=O)c1cc(Cl)cc(Cl)c1)C2 [BEMESETRON]
- IC50 [1]: 42.6 nM
- Dose [2]: 0.1 mg/kg

Structure (SMILES): Cc1nccn1CC1CCc2c(c3ccccc3n2C)C1=O (stereo not drawn) [ONDANSETRON]
- Dose [2]: 0.01 mg/kg

Structure (SMILES): COc1cc(N)c(Cl)cc1C(=O)NC1CN2CCC1CC2 (stereo not drawn) [ZACOPRIDE]
- IC50 [1]: 2.2 nM
- Dose [2]: 0.01 mg/kg

Structure (SMILES): CN1C2CCC1CC(Oc1ccc3ccccc3n1)C2 (stereo not drawn)
- IC50 [1]: 39.6 nM
- Dose [2]: 10 mg/kg

Structure (SMILES): c1ccc2nc(OC3CN4CCC3CC4)ccc2c1 (stereo not drawn)
- IC50 [1]: 48 nM
- Dose [2]: 3 mg/kg

Structure (SMILES): CN1[C@@H]2CC[C@H]1C[C@@H](OC(=O)c1c[nH]c3ccccc13)C2 [TROPISETRON]
- IC50 [1]: 2.3 nM
- Dose [2]: 0.01 mg/kg

Structure (SMILES): CN1C2CCC1CC(Oc1nc3ccccc3s1)C2 (stereo not drawn)
- IC50 [1]: 6.9 nM
- Dose [2]: 0.1 mg/kg
